{"source": "patent US20150366884A1", "about": "“COMPOSITIONS AND METHODS FOR CANCER THERAPY” (UNIVERSITY OF IOWA RESEARCH FOUNDATION, priority 2013, published 2015)", "key": {"melanoma tumor": {"test_system": "melanoma tumor", "assay": "Treatment of melanoma tumor bearing animals", "assay_type": "in vivo"}, "[1]": {"test_system": "A375 human melanoma cells", "assay": "MTT viability analysis, TPP chain length and treatment time, A375 cells", "settings": "for cytotoxicity at 0.5 µM: Homo sapiens, read-out: decrease in A375 cell viability", "method": "(§1) A375 human melanoma (catalog no. CRL1619™) cells were purchased from ATCC®. All cells were cultured in 150 cm^2 culture flasks at 37° C. in a humidified 5% CO2 incubator and detached with 0.25% trypsin-EDTA (GIBCO®, catalog no. 25200). A375 cells were cultured in high glucose DMEM medium (GIBCO®, catalog no. 11965) supplemented with 1% PenStrep (GIBCO®, catalog no. 15140) and 10% FBS (GIBCO®, catalog no. 26140). MeWo cells were cultured in 1:1 DMEM:F12 (VENDOR INFO) medium supplemented with 1% PenStrep and 10% FBS. Melanocytes were cultured in Ham's F10 medium (GIBCO®, catalog no 11550) supplemented with 7% horse serum (Hyclone®, catalog no. SH30074.03) and 50 ng/mL 12-myristate 13-acetate (TPA) (Sigma®, catalog no. P-8139). Experiments were performed with cells at or below passage twenty.\n(§2) MTT viability analysis of melanoma cells versus non-malignant melanocyte cells looking at the effect of variation in TPP molecular chain length and treatment time. A375 human melanoma cells in (A), MeWo human melanoma cells in (B), and non-malignant melanocyte cells in (C) were treated with TPP derivatives at a 0.5 μM concentration for 24 h, 48 h, and 72 h."}, "[2]": {"test_system": "MeWo human melanoma cells", "assay": "MTT viability analysis, TPP chain length and treatment time, MeWo cells", "settings": "for cytotoxicity at 0.5 µM: Homo sapiens, MeWo, read-out: decrease in MeWo cell viability", "method": "as §1, §2"}, "[3]": {"test_system": "non-malignant melanocyte cells", "assay": "MTT viability analysis, TPP chain length and treatment time, melanocytes", "settings": "0.5 μM", "method": "as §1, §2"}}, "note": "Like-named read-outs stand apart in the source and are kept apart here."}
{"smiles": "CCCCCCCCCC[P+](c1ccccc1)(c1ccccc1)c1ccccc1", "note": "[decyl-TPP, decyltriphenylphosphonium]", "values": [{"measurement": "tolerability", "setting": "melanoma tumor", "result": "well-tolerated"}, {"measurement": "decrease in A375 cell viability", "setting": "[1]; 0.5 μM, 24 h", "result": "no significant decrease"}, {"measurement": "cytotoxicity at 0.5 µM", "setting": "[1]; A-375, 48 h", "result": "> 30", "unit": "%"}, {"measurement": "cytotoxicity at 0.5 µM", "setting": "[1]; A-375, 72 h", "result": "> 30", "unit": "%"}, {"measurement": "decrease in MeWo cell viability", "setting": "[2]; 0.5 μM, 24 h", "result": "no significant decrease"}, {"measurement": "cytotoxicity at 0.5 µM", "setting": "[2]; 48 h", "result": "> 30", "unit": "%"}, {"measurement": "cytotoxicity at 0.5 µM", "setting": "[2]; 72 h", "result": "> 30", "unit": "%"}, {"measurement": "decrease in non-malignant melanocyte cell viability", "setting": "[3]; 24 h", "result": "No significant decrease"}, {"measurement": "decrease in non-malignant melanocyte cell viability", "setting": "[3]; 48 h", "result": "No significant decrease"}, {"measurement": "decrease in melanocyte viability", "setting": "[3]; 72 h", "result": "not observed"}]}
